{"source": "paper PMC6982966", "about": "(Molecules, 2019)", "key": {"human CK2 holoenzyme [1]": {"biological_target": "T1, human CK2 holoenzyme (Homo sapiens, UniProt P68400)", "T1 construct": "made in house; host or cells: Escherichia coli", "T1 sequence (P68400 whole entry)": "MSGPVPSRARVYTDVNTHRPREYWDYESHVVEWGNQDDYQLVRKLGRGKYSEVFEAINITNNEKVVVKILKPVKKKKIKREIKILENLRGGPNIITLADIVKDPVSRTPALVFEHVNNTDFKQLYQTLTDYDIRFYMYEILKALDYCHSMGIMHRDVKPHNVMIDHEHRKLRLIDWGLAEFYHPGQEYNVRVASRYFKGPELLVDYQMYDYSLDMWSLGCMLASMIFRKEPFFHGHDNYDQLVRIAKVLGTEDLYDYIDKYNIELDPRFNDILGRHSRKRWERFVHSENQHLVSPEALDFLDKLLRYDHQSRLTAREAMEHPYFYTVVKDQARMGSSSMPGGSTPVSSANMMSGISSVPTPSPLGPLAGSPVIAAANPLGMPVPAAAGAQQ", "T1 sequence (P67870 whole entry partner)": "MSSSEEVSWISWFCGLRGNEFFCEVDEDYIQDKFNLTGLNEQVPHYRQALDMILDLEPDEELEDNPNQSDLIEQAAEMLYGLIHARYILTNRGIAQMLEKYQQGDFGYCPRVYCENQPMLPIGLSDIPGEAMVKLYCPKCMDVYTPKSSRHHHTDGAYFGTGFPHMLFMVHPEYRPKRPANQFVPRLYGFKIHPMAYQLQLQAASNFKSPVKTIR", "test": "biochemical", "conditions": "newly synthesized indeno[1,2-b]indoles"}, "human CK2 holoenzyme [2]": {"biological_target": "T1, human CK2 holoenzyme", "conditions": "recombinant human CK2, compounds published before, cited from earlier work; for Tested pIC50: pIC50 = -logIC50"}, "MCF-7 cells": {"test_system": "MCF-7 cells", "test": "MTT cell viability assay", "assay_type": "cell-based, human", "conditions": "for reduction of cell viability: after 24 h and 48 h", "experimental": "The effect of the four naphtho[2,3-b]furan-4,9-dione derivatives on cell viability was evaluated using an MTT assay with MCF-7 cells (human breast adenocarcinoma cell line). […]. It is important to note that some compounds with a naphtho[2,3-b]furan-4,9-dione backbone are known to have anticancer effects and are highly cytotoxic, and other natural naphtho[2,3-b]furan-4,9-dione derivatives, which are found in the lapacho (Tabebuia) tree, are known to have different biological activities, such as antibacterial, antifungal, anti-inflammatory, and antitumor activities.\nBars represent the mean values of three measurements (n = 3). Error bars illustrate the corresponding standard deviations (± SD).\nThe effect of CK2 inhibitors on the viability of MCF-7 cells was evaluated using an MTT assay. MCF-7 breast cancer cells (kindly provided by the Department of Clinical Radiology of the University Hospital Muenster, Germany) were cultured in RPMI 1640 medium containing GlutaMax (Life Technologies, Darmstadt, Germany) and 10% fetal calf serum. The MTT assay was performed in 96-well plates. Cells were seeded at a density of 1 × 10^5 cells per well, then incubated […] at 37 °C in a humidified atmosphere (5% CO2). After overnight incubation, the seeding medium was removed and replaced with fresh medium containing the inhibitor at 0.01, 0.1, 1, and 10 μM. DMSO at a final concentration of 1% served as a control. Afterward, the MTT reagent (Sigma Aldrich, Darmstadt, Germany) was added at a final concentration of 0.5 mg/mL. After incubation for 2 h at 37 °C, the medium was discarded and 200 µL DMSO was added for the solubilization of the formazan. After mixing, the absorption was determined at 570 nm with a reference wavelength of 630 nm using a microplate reader. CK2 inhibitors were tested in triplicate, and the experiments were repeated three times."}, "[3]": {"conditions": "recombinant human CK2, read-out: Tested IC50"}, "[4]": {"conditions": "Tested IC50, recombinant human CK2"}, "[5]": {"conditions": "Tested pIC50, recombinant human CK2, pIC50 = -logIC50"}, "[6]": {"conditions": "recombinant human CK2, pIC50 = -logIC50, read-out: Tested pIC50 (converted)"}}, "note": "Where two headings read alike, the source gives them in different places.", "data": [{"smiles": "CCn1c2c(=O)ccc(=O)c2c2c(=O)c3ccccc3c21", "note": "[6c]", "values": [{"measurement": "IC50", "setting": "human CK2 holoenzyme [1]; [3]", "value": 1.58, "unit": "µM"}]}, {"smiles": "CC(C)C1CC(=O)c2c3c(n(C(C)C)c2C1)-c1ccccc1C3=O", "note": "(centres unmarked) [4y]", "values": [{"measurement": "Tested pIC50", "setting": "human CK2 holoenzyme [2]", "value": 6.2150}]}, {"smiles": "CC(=O)Oc1ccc2c(c1)-c1c(c3c(n1C(C)C)CCCC3=O)C2=O", "note": "[4q]", "values": [{"measurement": "IC50", "setting": "human CK2 holoenzyme [1]; [4]", "value": 3.21, "unit": "µM"}, {"measurement": "IC50", "setting": "human CK2 holoenzyme [1]; [5]", "value": 3.21, "unit": "µM"}]}, {"smiles": "CC(C)n1c2c(c3c1-c1cccc(Br)c1C3=O)C(=O)CCC2", "note": "[4j]", "values": [{"measurement": "IC50", "setting": "human CK2 holoenzyme [1]; [5]", "value": 0.14, "unit": "µM"}]}, {"smiles": "CC(C)n1c2c(c3c1-c1cc(OCCCC(=O)O)ccc1C3=O)C(=O)CCC2", "note": "[4s]", "values": [{"measurement": "IC50", "setting": "human CK2 holoenzyme [1]; [5]", "value": 1.51, "unit": "µM"}]}, {"smiles": "Cc1oc2c(c1C(=O)NCCC(C)C)C(=O)c1ccccc1C2=O", "note": "[compound 00082235, N-isopentyl-2-methyl-4,9-dioxo-4,9-dihydronaphtho[2,3-b]furan-3-carboxamide]", "values": [{"measurement": "reduction of cell viability", "setting": "MCF-7 cells; MCF-7, 10 µM", "value": "more than 90%"}]}, {"smiles": "COc1cccc2c(=O)c3c4c(=O)ccc(=O)c4n(C(C)C)c3c12", "note": "[6f]", "values": [{"measurement": "IC50", "setting": "human CK2 holoenzyme [1]; [3]", "value": 0.87, "unit": "µM"}, {"measurement": "IC50", "setting": "human CK2 holoenzyme [1]; [6]", "value": 0.871, "unit": "µM"}]}, {"smiles": "O=c1ccc(=O)c2c1[nH]c1c3ccccc3c(=O)c12", "note": "[6a]", "values": [{"measurement": "IC50", "setting": "human CK2 holoenzyme [1]; [3]", "value": 1.78, "unit": "µM"}, {"measurement": "IC50", "setting": "human CK2 holoenzyme [1]; [6]", "value": 1.78, "unit": "µM"}]}, {"smiles": "Cc1oc2c(c1C(=O)N1CCOCC1)C(=O)c1ccccc1C2=O", "note": "[compound 01236034, 2-methyl-3(morpholine-4-carbonyl)naphto[2,3-b] furan-4,9-dione]", "values": [{"measurement": "cell viability reduced to", "setting": "MCF-7 cells; MCF-7, 10 µM, after 48 h", "value": 60, "unit": "%"}]}, {"smiles": "COC(=O)CCCOc1ccc2c(c1)-c1c(c3c(n1C(C)C)CCCC3=O)C2=O", "note": "[4r]", "values": [{"measurement": "IC50", "setting": "human CK2 holoenzyme [1]; [5]", "value": 0.52, "unit": "µM"}]}, {"smiles": "Cc1oc2c(c1C(=O)NCCCn1ccnc1)C(=O)c1ccccc1C2=O", "note": "[compound 01893208, 1-(3-(2-methyl-4,9-dioxo-4,9-dihydronaphtho[2,3-b]furan-3-carboxamido)propyl)-1H-imidazol-3-ium]", "values": [{"measurement": "reduction of cell viability", "setting": "MCF-7 cells; MCF-7, 1 µM", "value": "around 90%"}, {"measurement": "reduction of cell viability", "setting": "MCF-7 cells; MCF-7, 10 µM", "value": "more than 90%"}]}, {"smiles": "COc1ccc2c(=O)c3c4c(=O)ccc(=O)c4n(C(C)C)c3c2c1", "note": "[6e]", "values": [{"measurement": "IC50", "setting": "human CK2 holoenzyme [1]; [4]", "value": 4.16, "unit": "µM"}, {"measurement": "IC50", "setting": "human CK2 holoenzyme [1]; [5]", "value": 4.16, "unit": "µM"}]}, {"smiles": "Cc1oc2c(c1C(=O)NCc1cccnc1)C(=O)c1ccccc1C2=O", "note": "[compound 37867960, 2-methyl-4,9-dioxo-N-(pyridin-3-ylmethyl)-4,9-dihydronaphtho[2,3-b]furan-3-carboxamide]", "values": [{"measurement": "reduction of cell viability", "setting": "MCF-7 cells; MCF-7, 1 µM", "value": "around 90%"}, {"measurement": "reduction of cell viability", "setting": "MCF-7 cells; MCF-7, 10 µM", "value": "more than 90%"}]}, {"smiles": "CC(C)n1c2c(c3c1-c1cccc(C(F)(F)F)c1C3=O)C(=O)CCC2", "note": "[4i]", "values": [{"measurement": "IC50", "setting": "human CK2 holoenzyme [1]; [5]", "value": 0.21, "unit": "µM"}]}, {"smiles": "CC(C)n1c2c(c3c1-c1cc(Br)cc(Br)c1C3=O)C(=O)CCC2", "note": "[4w, 1,3-dibromo-5-isopropyl-5,6,7,8-tetrahydroindeno[1,2-b]indole-9,10-dione]", "values": [{"measurement": "melting point", "value": 276, "unit": "°C"}, {"measurement": "IC50", "setting": "human CK2 holoenzyme [1]; [5]", "value": 0.11, "unit": "µM"}]}, {"smiles": "Cc1cc(=O)c2c3c(=O)c4ccccc4c3n(C(C)C)c2c1=O", "note": "[6g]", "values": [{"measurement": "Tested pIC50", "setting": "human CK2 holoenzyme [2]", "value": 6.3660}]}, {"smiles": "COC(=O)COc1ccc2c(c1)-c1c(c3c(n1C(C)C)CCCC3=O)C2=O", "note": "[4p]", "values": [{"measurement": "IC50", "setting": "human CK2 holoenzyme [1]; [4]", "value": 1.52, "unit": "µM"}, {"measurement": "IC50", "setting": "human CK2 holoenzyme [1]; [5]", "value": 1.52, "unit": "µM"}]}, {"smiles": "CC(C)n1c2c(=O)ccc(=O)c2c2c(=O)c3c(Br)cccc3c21", "note": "[6d]", "values": [{"measurement": "IC50", "setting": "human CK2 holoenzyme [1]; [3]", "value": 1.35, "unit": "µM"}, {"measurement": "IC50", "setting": "human CK2 holoenzyme [1]; [6]", "value": 1.35, "unit": "µM"}]}, {"smiles": "COc1ccccc1CCn1c2c(c3c1-c1ccccc1C3=O)C(=O)CCC2", "note": "[4e]", "values": [{"measurement": "IC50", "setting": "human CK2 holoenzyme [2]; read-out: Tested IC50", "value": 1.4, "unit": "µM"}, {"measurement": "Tested pIC50", "setting": "human CK2 holoenzyme [2]", "value": 5.8540}]}, {"smiles": "O=C1c2ccccc2-c2[nH]c3cccc(O)c3c21", "note": "[5a]", "values": [{"measurement": "IC50", "setting": "human CK2 holoenzyme [1]; [3]", "value": 2.22, "unit": "µM"}, {"measurement": "IC50", "setting": "human CK2 holoenzyme [1]; [6]", "value": 2.22, "unit": "µM"}]}, {"smiles": "Cc1cccc2c1C(=O)c1c3c(n(C(C)C)c1-2)CCCC3=O", "note": "[4h, 5-isopropyl-1-methyl-5,6,7,8-tetrahydroindeno[1,2-b]indole-9,10-dione]", "values": [{"measurement": "melting point", "value": 235, "unit": "°C"}, {"measurement": "IC50", "setting": "human CK2 holoenzyme [1]; [5]", "value": 0.11, "unit": "µM"}]}, {"smiles": "Cn1c2c(=O)ccc(=O)c2c2c(=O)c3ccccc3c21", "note": "[6b]", "values": [{"measurement": "IC50", "setting": "human CK2 holoenzyme [1]; [4]", "value": 1.12, "unit": "µM"}, {"measurement": "IC50", "setting": "human CK2 holoenzyme [1]; [5]", "value": 1.12, "unit": "µM"}]}]}
